Target: T1, human thrombi (Homo sapiens, UniProt P02671+P02675+P02679)
T1 construct: Human plasma was allowed to clot for 90 min at 37 °C; from tissue; host or cells: citrated plasma of healthy human volunteers, clotted with CaCl2 and tissue factor
T1 sequence (P02671 36-629 limits assumed): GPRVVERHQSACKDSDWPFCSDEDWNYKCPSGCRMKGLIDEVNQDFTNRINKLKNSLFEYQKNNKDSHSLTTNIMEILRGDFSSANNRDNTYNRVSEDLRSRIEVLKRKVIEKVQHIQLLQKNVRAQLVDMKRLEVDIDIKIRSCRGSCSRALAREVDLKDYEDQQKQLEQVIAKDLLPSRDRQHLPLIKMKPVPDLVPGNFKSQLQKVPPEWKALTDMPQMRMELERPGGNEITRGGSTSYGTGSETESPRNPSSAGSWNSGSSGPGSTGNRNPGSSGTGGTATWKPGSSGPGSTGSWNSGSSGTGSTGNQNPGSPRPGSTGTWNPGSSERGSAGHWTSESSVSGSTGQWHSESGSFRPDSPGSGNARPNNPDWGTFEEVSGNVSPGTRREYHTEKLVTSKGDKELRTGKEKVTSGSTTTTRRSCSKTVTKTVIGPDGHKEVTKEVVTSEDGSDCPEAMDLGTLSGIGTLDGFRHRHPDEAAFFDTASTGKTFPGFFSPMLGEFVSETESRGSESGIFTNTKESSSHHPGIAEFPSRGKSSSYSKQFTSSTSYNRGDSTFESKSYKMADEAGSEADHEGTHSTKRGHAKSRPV
T1 sequence (P02675 45-491 limits assumed): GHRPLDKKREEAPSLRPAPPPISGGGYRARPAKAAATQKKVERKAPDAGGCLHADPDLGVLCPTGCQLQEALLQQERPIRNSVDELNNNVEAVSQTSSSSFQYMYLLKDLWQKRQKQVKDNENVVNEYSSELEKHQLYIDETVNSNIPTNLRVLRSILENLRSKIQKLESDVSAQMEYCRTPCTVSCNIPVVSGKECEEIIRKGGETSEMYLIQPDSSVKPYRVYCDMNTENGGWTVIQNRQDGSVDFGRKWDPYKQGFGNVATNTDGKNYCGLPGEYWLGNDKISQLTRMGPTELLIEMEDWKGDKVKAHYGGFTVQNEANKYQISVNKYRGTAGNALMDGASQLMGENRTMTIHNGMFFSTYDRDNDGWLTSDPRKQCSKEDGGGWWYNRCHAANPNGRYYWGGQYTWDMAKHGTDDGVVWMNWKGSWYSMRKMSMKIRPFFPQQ
T1 sequence (P02679 27-437 isoform P02679-2 limits assumed): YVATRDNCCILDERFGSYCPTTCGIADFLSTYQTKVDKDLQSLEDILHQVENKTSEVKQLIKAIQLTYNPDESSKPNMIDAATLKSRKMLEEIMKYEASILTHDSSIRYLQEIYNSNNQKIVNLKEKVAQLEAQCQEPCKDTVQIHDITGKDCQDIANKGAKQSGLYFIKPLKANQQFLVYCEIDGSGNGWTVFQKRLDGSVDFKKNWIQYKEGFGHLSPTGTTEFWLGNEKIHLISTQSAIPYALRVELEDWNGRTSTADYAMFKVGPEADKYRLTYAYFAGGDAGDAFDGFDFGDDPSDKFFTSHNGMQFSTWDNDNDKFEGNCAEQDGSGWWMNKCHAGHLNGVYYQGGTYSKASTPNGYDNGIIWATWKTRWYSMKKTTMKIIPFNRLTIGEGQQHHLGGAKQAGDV
Assay: In vitro probe depletion: incorporation of rhodamine-labelled probes into human plasma thrombi (OD570 of supernatant)
Assay type: binding
Conditions: mean
Procedure: Human blood was collected from healthy volunteers by venipuncture using a vacutainer tube containing trisodium citrate after signing informed consent (Helsinki declaration). […] At the indicated time points, the OD570 of the supernatant was measured. Mouse blood was collected through a tail vein puncture, and plasma from 6 mice was pooled. Human and mouse thrombi were allowed to form as described above and subsequently incubated with 100 μ L or 16 ng/ μ L ^111 In-A16 or ^111 In-control-A16. After 30, 60 and 180 min, the thrombi were washed twice with 1 mL PBS, and the amount of tracer uptake in the thrombi was calculated using gamma counting (Wallac Wizard, Turku, Finland). Data were expressed as the percentage of tracer uptake in the thrombi to the total amount of tracer added.
LisB-A16 was compared with bi- α 2-AP-CA. Human plasma was allowed to clot for 90 min at 37 °C, after which a 3 μ M probe was added. The decrease in probe left in the solution was measured by colourimetry and represented probe incorporation into the human thrombi (Figure 2A). […]
Figure 2 In vitro probe depletion. […] OD (570 nm) in solution was measured after 1, 2, 3 and 4 h as a measure of probe incorporation in thrombi. […]
OD (570 nm) in soluti on was measured after 1, 2, 3 and 4 hours , as a measure of probe […]

Ac-GNQEQVSPLTLLK1-K(LisB)K-NH 2 [LisB-A16, red fluorescent A16 probe conjugated with Lissamine rhodamine-B]
absorption at 570 nm of probe left in solution (probe incorporation into human thrombi) (3 μM probe added to human plasma thrombi formed 90 min at 37 °C (14 mM CaCl2, 0.6 nM TF), OD570 of supernatant measured after 1, 2, 3 and 4 h, n = 4, lower = more incorporation): 53%
remaining probe in solution (15 μM probe added to human plasma thrombi formed 90 min at 37 °C, OD570 of supernatant after 1, 2, 3 and 4 h, n = 4 (Figure S2)): 61%
